According to ChEMBL document CHEMBL1140568, “Trisubstituted pyrimidines as transient receptor potential vanilloid 1 (TRPV1) antagonists with improved solubility” (Bioorg Med Chem Lett, 2007):
In brackets after ≈: the same amount, converted by molar mass.

What was measured:
[1] = molecular target: T1, Transient receptor potential cation channel subfamily V member 1 (Rattus norvegicus, UniProt O35433); test: Antagonist activity at rat TRPV1 expressed in CHO cells assessed inhibition of acid induced calcium influx; format: functional, cell-based
[2] = Aqueous solubility in PBS at pH 7; format: physicochemical
[3] = Aqueous solubility in fasted-state stimulated intestinal fluid at pH 6.8; format: physicochemical; settings: fasted-state simulated intestinal fluid
[4] = Aqueous solubility in 0.01N HCl; format: physicochemical
[5] = molecular target: T1, Transient receptor potential cation channel subfamily V member 1; test: Antagonist activity at rat TRPV1 expressed in CHO cells assessed inhibition of capsaicin induced calcium influx; format: functional, cell-based
[6] = Oral bioavailability in Sprague-Dawley rat at 5 mg/kg; format: ADME, organism-based; settings: in vivo
[7] = Half life in Sprague-Dawley rat at 1 mg/kg, iv; format: ADME, organism-based; parameters: dose 1 mg/kg, route intravenous; settings: in vivo
[8] = Volume of distribution at steady state in Sprague-Dawley rat at 1 mg/kg, iv; format: ADME, organism-based; parameters: dose 1 mg/kg, route intravenous; settings: in vivo, read-out: Vdss
[9] = AUC (0 to infinity) in Sprague-Dawley rat at 5 mg/kg, po; format: ADME, organism-based; parameters: time infinity, dose 5 mg/kg, route oral; settings: plasma
[10] = AUC (0 to infinity) in Sprague-Dawley rat at 1 mg/kg, iv; format: ADME, organism-based; parameters: time infinity, dose 1 mg/kg, route intravenous; settings: plasma
[11] = Cmax in Sprague-Dawley rat at 5 mg/kg, po; format: ADME, organism-based; parameters: dose 5 mg/kg, route oral; settings: in vivo
[12] = Clearance in Sprague-Dawley rat at 1 mg/kg, iv; format: ADME, organism-based; parameters: dose 1 mg/kg, route intravenous; settings: in vivo

T1 sequence (O35433 whole entry): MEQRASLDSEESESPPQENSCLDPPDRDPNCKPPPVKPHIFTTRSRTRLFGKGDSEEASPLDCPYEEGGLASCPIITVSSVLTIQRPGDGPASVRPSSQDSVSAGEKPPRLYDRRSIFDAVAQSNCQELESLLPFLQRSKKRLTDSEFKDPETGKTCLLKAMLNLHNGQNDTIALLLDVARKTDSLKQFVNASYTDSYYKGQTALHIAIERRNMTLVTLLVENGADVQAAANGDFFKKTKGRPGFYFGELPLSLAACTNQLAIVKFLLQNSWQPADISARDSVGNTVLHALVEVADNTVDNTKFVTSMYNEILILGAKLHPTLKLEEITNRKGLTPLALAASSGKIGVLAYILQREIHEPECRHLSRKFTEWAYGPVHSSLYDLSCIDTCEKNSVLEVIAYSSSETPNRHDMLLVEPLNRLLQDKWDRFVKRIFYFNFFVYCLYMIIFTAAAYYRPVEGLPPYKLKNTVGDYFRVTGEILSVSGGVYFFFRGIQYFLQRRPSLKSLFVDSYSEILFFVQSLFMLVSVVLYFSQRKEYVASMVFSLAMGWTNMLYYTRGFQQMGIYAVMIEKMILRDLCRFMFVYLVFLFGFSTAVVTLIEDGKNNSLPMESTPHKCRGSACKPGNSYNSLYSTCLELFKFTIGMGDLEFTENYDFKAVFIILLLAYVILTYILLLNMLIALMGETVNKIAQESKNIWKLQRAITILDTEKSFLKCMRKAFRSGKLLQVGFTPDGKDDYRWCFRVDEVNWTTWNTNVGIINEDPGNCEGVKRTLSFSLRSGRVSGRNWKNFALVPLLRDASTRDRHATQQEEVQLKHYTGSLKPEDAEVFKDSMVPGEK

IC50 [1] [nM] | solubility [2] [µg/mL] | solubility [3] [µg/mL] | solubility [4] [µg/mL] | IC50 [5] [nM] | bioavailability [6] [%] | half-life [7] [h] | Vd [8] [L/kg] | AUC(0-inf) [9] [ng·h/mL] | AUC(0-inf) [10] [ng·h/mL] | Cmax [11] [ng/mL] | clearance [12] [mL/min/kg] | Structure (SMILES)
4.8 | 8.8 (≈ 19.8 µM) | 3.5 (≈ 7.86 µM) | 4.7 (≈ 10.6 µM) | 12 | – | – | – | – | – | – | – | CC(=O)Nc1nc2c(Oc3cc(-c4ccc(C(F)(F)F)cc4)nc(N)n3)cccc2s1
90 | 2 (≈ 3.78 µM) | 12 (≈ 22.7 µM) | 21 (≈ 39.7 µM) | 35 | – | – | – | – | – | – | – | CC(=O)Nc1nc2c(Oc3cc(-c4ccc(C(F)(F)F)cc4)nc(N4CCC(O)CC4)n3)cccc2s1
1.1 | ≤ 1 | 1.4 (≈ 2.72 µM) | ≤ 1 | 28 | – | – | – | – | – | – | – | CC(=O)Nc1nc2c(Oc3cc(-c4ccc(C(F)(F)F)cc4)nc(N4CCOCC4)n3)cccc2s1
– | < 1 | – | < 1 | – | – | – | – | – | – | – | – | CC(=O)Nc1nc2c(Oc3cc(-c4ccc(C(F)(F)F)cc4)ncn3)cccc2s1 [AMG-517]
1.5 | ≤ 1 | 2.8 (≈ 5.45 µM) | ≤ 1 | 5.1 | – | – | – | – | – | – | – | CC(=O)Nc1nc2c(Oc3cc(-c4ccc(C(F)(F)F)cc4)nc(N4CCCCC4)n3)cccc2s1
27 | 6 (≈ 10.8 µM) | 3.4 (≈ 6.1 µM) | ≤ 1 | 410 | – | – | – | – | – | – | – | CC(=O)Nc1nc2c(Oc3cc(-c4ccc(C(F)(F)F)cc4)nc(N4CCC(C(=O)O)CC4)n3)cccc2s1
1.6 | 6.7 (≈ 12.2 µM) | 150 (≈ 272 µM) | ≥ 200 | 1.5 | 24 | 5.5 | 6.44 | 899 | 743 | 280 | 22.5 | CC(=O)Nc1nc2c(Oc3cc(-c4ccc(C(F)(F)F)cc4)nc(NC(C)c4ccccn4)n3)cccc2s1 (configuration not stated)
64 | 9.4 (≈ 15.7 µM) | ≥ 200 | ≥ 200 | 51 | – | – | – | – | – | – | – | CC(=O)Nc1nc2c(Oc3cc(-c4ccc(C(F)(F)F)cc4)nc(NCC4CCN(CC(C)C)CC4)n3)cccc2s1
11 | 9.1 (≈ 15.2 µM) | 190 (≈ 317 µM) | ≥ 200 | 6.1 | – | 2.6 | 8.29 | – | 351 | – | 47.7 | CC(=O)Nc1nc2c(Oc3cc(-c4ccc(C(F)(F)F)cc4)nc(NCC4CCCCN4CC(C)C)n3)cccc2s1 (configuration not stated)
– | – | – | – | – | – | 2 | 6.38 | – | 258 | – | 67.3 | CC(=O)Nc1nc2c(Oc3cc(-c4ccc(C(F)(F)F)cc4)nc(C4=CCN(CC(C)C)CC4)n3)cccc2s1
